Measured values: ChEMBL document CHEMBL3885861, “Open TG-GATES”

Species on record: Rattus norvegicus
Assay: Open TG-GATES - Regimen: Single
Assay type: toxicity, organism-based, Sprague-Dawley
Set-up: regimen Single, gender Male, age 6 weeks
Conditions: in vivo, po, 1000 mg/kg, route gavage, dose level High; for APTT / Bas / Eos / Fbg / Hb / Ht / Lym / MCH / MCHC / MCV / Mono / Neu / PT / Plat / RBC / Ret / WBC: tissue Blood; for KIDNEY_L / KIDNEY_R / KIDNEY_TOTAL: tissue Kidney; for LIVER: tissue Liver; for A/G / ALP / ALT / AST / BUN / CRE / Ca / Cl / DBIL / GLC / IP / K / LDH / Na / PL / RALB / TBIL / TC / TG / TP / gamma-GTP: tissue Plasma

Question: Which results are given for `CCc1cc(C(N)=S)ccn1` [ETHIONAMIDE]?
Answer: TERMINAL_BW (3 h): 227.9 g; APTT (3 h): 17.7 s; Bas (3 h): 0%; Eos (3 h): 1%; Fbg (3 h): 212.6 mg/dL; Hb (3 h): 13.7 g/dL; Ht (3 h): 40.6%; Lym (3 h): 70.8%; MCH (3 h): 21.4 pg; MCHC (3 h): 33.8%; MCV (3 h): 63.5 fL; Mono (3 h): 8.4%; Neu (3 h): 19.8%; PT (3 h): 12.4 s; Plat (3 h): 112.8 x10_4/uL; RBC (3 h): 640 x10_4/ul; Ret (3 h): 7.9%; WBC (3 h): 62.9 x10_2/uL; KIDNEY_L (3 h): 1 g; KIDNEY_R (3 h): 1 g; KIDNEY_TOTAL (3 h): 2 g; LIVER (3 h): 11.1 g; A/G (3 h): 1.9; ALP (3 h): 715 IU/L; ALT (3 h): 33.6 IU/L; AST (3 h): 69 IU/L; BUN (3 h): 13.4 mg/dL; CRE (3 h): 0.5 mg/dL; Ca (3 h): 11 mg/dL; Cl (3 h): 100 meq/L; DBIL (3 h): 0.014 mg/dL; GLC (3 h): 202.8 mg/dL; IP (3 h): 9.1 mg/dL; K (3 h): 4 meq/L; LDH (3 h): 106.4 IU/L; Na (3 h): 139.2 meq/L; PL (3 h): 130.4 mg/dL; RALB (3 h): 3.7 g/dL; TBIL (3 h): 0.4 mg/dL; TC (3 h): 78.6 mg/dL; TG (3 h): 46 mg/dL; TP (3 h): 5.7 g/dL; gamma-GTP (3 h): 1.2 IU/L; TERMINAL_BW (6 h): 227.1 g; APTT (6 h): 18.3 s; Bas (6 h): 0%; Eos (6 h): 0.8%; Fbg (6 h): 209.2 mg/dL; Hb (6 h): 14.4 g/dL; Ht (6 h): 43.1%; Lym (6 h): 75.6%; MCH (6 h): 21.9 pg; MCHC (6 h): 33.5%; MCV (6 h): 65.3 fL; Mono (6 h): 7.6%; Neu (6 h): 16%; PT (6 h): 13.8 s; Plat (6 h): 118.7 x10_4/uL; RBC (6 h): 659.2 x10_4/ul; Ret (6 h): 7.9%; WBC (6 h): 98.1 x10_2/uL; KIDNEY_L (6 h): 1 g; KIDNEY_R (6 h): 1 g; KIDNEY_TOTAL (6 h): 2 g; LIVER (6 h): 10.4 g; A/G (6 h): 1.8; ALP (6 h): 679 IU/L; ALT (6 h): 33.8 IU/L; AST (6 h): 74.8 IU/L; BUN (6 h): 16 mg/dL; CRE (6 h): 0.5 mg/dL; Ca (6 h): 10.9 mg/dL; Cl (6 h): 102.8 meq/L; DBIL (6 h): 0.004 mg/dL; GLC (6 h): 192.4 mg/dL; IP (6 h): 9.4 mg/dL; K (6 h): 4 meq/L; LDH (6 h): 119.2 IU/L; Na (6 h): 139.2 meq/L; PL (6 h): 111.8 mg/dL; RALB (6 h): 3.6 g/dL; TBIL (6 h): 0.5 mg/dL; TC (6 h): 62.4 mg/dL; TG (6 h): 17.8 mg/dL; TP (6 h): 5.6 g/dL; gamma-GTP (6 h): 1.2 IU/L; TERMINAL_BW (9 h): 224.3 g; APTT (9 h): 18.3 s; Bas (9 h): 0%; Eos (9 h): 1.2%; Fbg (9 h): 209 mg/dL; Hb (9 h): 14 g/dL; Ht (9 h): 41.3%; Lym (9 h): 73.8%; MCH (9 h): 21.2 pg; MCHC (9 h): 33.8%; MCV (9 h): 62.8 fL; Mono (9 h): 8.4%; Neu (9 h): 16.8%; PT (9 h): 14.6 s; Plat (9 h): 121.3 x10_4/uL; RBC (9 h): 657 x10_4/ul; Ret (9 h): 7.5%; WBC (9 h): 77.3 x10_2/uL; KIDNEY_L (9 h): 1 g; KIDNEY_R (9 h): 1 g; KIDNEY_TOTAL (9 h): 2 g; LIVER (9 h): 9.7 g; A/G (9 h): 1.9; ALP (9 h): 641 IU/L; ALT (9 h): 36.2 IU/L; AST (9 h): 75.2 IU/L; BUN (9 h): 16.4 mg/dL; CRE (9 h): 0.5 mg/dL; Ca (9 h): 10.6 mg/dL; Cl (9 h): 104.6 meq/L; DBIL (9 h): 0.018 mg/dL; GLC (9 h): 202 mg/dL; IP (9 h): 9.6 mg/dL; K (9 h): 4.3 meq/L; LDH (9 h): 99 IU/L; Na (9 h): 140.6 meq/L; PL (9 h): 107.8 mg/dL; RALB (9 h): 3.5 g/dL; TBIL (9 h): 0.4 mg/dL; TC (9 h): 59.4 mg/dL; TG (9 h): 14.8 mg/dL; TP (9 h): 5.3 g/dL; gamma-GTP (9 h): 1.2 IU/L; TERMINAL_BW (24 h): 219.4 g; APTT (24 h): 18.9 s; Bas (24 h): 0%; Eos (24 h): 1.6%; Fbg (24 h): 186.4 mg/dL; Hb (24 h): 15.3 g/dL; Ht (24 h): 45.1%; Lym (24 h): 62.2%; MCH (24 h): 22.2 pg; MCHC (24 h): 34%; MCV (24 h): 65.3 fL; Mono (24 h): 7.8%; Neu (24 h): 28.2%; PT (24 h): 15.4 s; Plat (24 h): 118 x10_4/uL; RBC (24 h): 691.2 x10_4/ul; Ret (24 h): 8.3%; WBC (24 h): 63.3 x10_2/uL; KIDNEY_L (24 h): 1 g; KIDNEY_R (24 h): 1 g; KIDNEY_TOTAL (24 h): 2 g; LIVER (24 h): 10.1 g; A/G (24 h): 2; ALP (24 h): 839.2 IU/L; ALT (24 h): 36.6 IU/L; AST (24 h): 68.6 IU/L; BUN (24 h): 13 mg/dL; CRE (24 h): 0.6 mg/dL; Ca (24 h): 10.3 mg/dL; Cl (24 h): 102.2 meq/L; DBIL (24 h): 0.054 mg/dL; GLC (24 h): 228.8 mg/dL; IP (24 h): 8.3 mg/dL; K (24 h): 3.9 meq/L; LDH (24 h): 87.6 IU/L; Na (24 h): 140.8 meq/L; PL (24 h): 86.6 mg/dL; RALB (24 h): 3.6 g/dL; TBIL (24 h): 0.4 mg/dL; TC (24 h): 41.4 mg/dL; TG (24 h): 41.8 mg/dL; TP (24 h): 5.3 g/dL; gamma-GTP (24 h): 0.4 IU/L
